Experimental data: the supplement of paper PMC10307832

Legend:
Assay in all cases: relative viability (nuclei count vs DMSO), 5 days (fraction); higher = more cells survive
Afatinib + Foretinib = compound: CN(C)C/C=C/C(=O)Nc1cc2c(Nc3ccc(F)c(Cl)c3)ncnc2cc1O[C@H]1CCOC1 [Afatinib] + COc1cc2c(Oc3ccc(NC(=O)C4(C(=O)Nc5ccc(F)cc5)CC4)cc3F)ccnc2cc1OCCCN1CCOCC1 [Foretinib] (partner 0.25 µM)
Summary of the method: (§1)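 Relative viability divides the nuclei count in treated wells by that in vehicle wells. Lung cancer cell lines were seeded in 1536-well plates, dosed by pin tool the next day, and fixed and stained after 5 days in one step with final 0.05% Triton X-100, 1% formaldehyde and 1 ug/ml Hoechst. Dosing was a single drug or a fixed anchor-drug dose plus five library-drug doses (not always all listed) in √10 steps, and values are medians of duplicate plates imaged at 4×.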

Afatinib + Luminespib = compound: CN(C)C/C=C/C(=O)Nc1cc2c(Nc3ccc(F)c(Cl)c3)ncnc2cc1O[C@H]1CCOC1 [Afatinib] + CCNC(=O)c1noc(-c2cc(C(C)C)c(O)cc2O)c1-c1ccc(CN2CCOCC2)cc1 [Luminespib] (partner 0.01 µM)
Summary of the method: as §1

Afatinib + Tozasertib = compound: CN(C)C/C=C/C(=O)Nc1cc2c(Nc3ccc(F)c(Cl)c3)ncnc2cc1O[C@H]1CCOC1 [Afatinib] + Cc1cc(Nc2cc(N3CCN(C)CC3)nc(Sc3ccc(NC(=O)C4CC4)cc3)n2)n[nH]1 [Tozasertib] (partner 0.1 µM)
Summary of the method: as §1

Afatinib + AZD7762 = compound: CN(C)C/C=C/C(=O)Nc1cc2c(Nc3ccc(F)c(Cl)c3)ncnc2cc1O[C@H]1CCOC1 [Afatinib] + NC(=O)Nc1cc(-c2cccc(F)c2)sc1C(=O)N[C@H]1CCCNC1 [AZD7762] (partner 0.2 µM)
Summary of the method: as §1

Cell Line | relative viability (Afatinib + Foretinib; first compound 0.005 µM) | relative viability (Afatinib + Foretinib; first compound 0.01581 µM) | relative viability (Afatinib + Foretinib; first compound 0.05 µM) | relative viability (Afatinib + Foretinib; first compound 0.1581 µM) | relative viability (Afatinib + Foretinib; first compound 0.5 µM) | relative viability (Afatinib + Luminespib; first compound 0.005 µM) | relative viability (Afatinib + Luminespib; first compound 0.01581 µM) | relative viability (Afatinib + Luminespib; first compound 0.05 µM) | relative viability (Afatinib + Luminespib; first compound 0.1581 µM) | relative viability (Afatinib + Luminespib; first compound 0.5 µM) | relative viability (Afatinib + Tozasertib; first compound 0.005 µM) | relative viability (Afatinib + Tozasertib; first compound 0.01581 µM) | relative viability (Afatinib + Tozasertib; first compound 0.05 µM) | relative viability (Afatinib + Tozasertib; first compound 0.1581 µM) | relative viability (Afatinib + Tozasertib; first compound 0.5 µM) | relative viability (Afatinib + AZD7762; first compound 0.005 µM) | relative viability (Afatinib + AZD7762; first compound 0.01581 µM) | relative viability (Afatinib + AZD7762; first compound 0.05 µM) | relative viability (Afatinib + AZD7762; first compound 0.1581 µM) | relative viability (Afatinib + AZD7762; first compound 0.5 µM)
A549 | 0.826 | 0.835 | 0.781 | 0.806 | 0.861 |  |  |  |  |  |  |  |  |  |  |  |  |  |  | 
COR-L23 | 1.16 | 0.981 | 0.946 | 1 | 1.01 | 0.804 | 0.603 | 0.773 | 0.644 | 0.68 | 0.216 | 0.202 | 0.216 | 0.167 | 0.166 |  |  |  |  | 
COR-L 105 | 0.385 | 0.448 | 0.37 | 0.287 | 0.318 | 0.678 | 0.476 | 0.445 | 0.307 | 0.272 | 0.333 | 0.255 | 0.258 | 0.165 | 0.206 |  |  |  |  | 
Calu-6 | 0.913 | 0.975 | 0.882 | 0.88 | 0.93 |  |  |  |  |  |  |  |  |  |  |  |  |  |  | 
EBC-1 | 0.105 | 0.0995 | 0.0925 | 0.109 | 0.0966 |  |  |  |  |  |  |  |  |  |  |  |  |  |  | 
HCC-44 |  |  |  |  |  | 0.957 | 1.11 | 1.13 | 1.17 | 1.26 | 1.18 | 1.02 | 1 | 0.946 | 0.897 | 0.98 | 0.973 | 1.07 | 1 | 0.959
HCC-78 | 0.549 | 0.568 | 0.405 | 0.324 | 0.386 |  |  |  |  |  | 0.474 | 0.405 | 0.403 | 0.312 | 0.47 | 0.693 | 0.542 | 0.509 | 0.478 | 0.449
HCC-366 | 0.916 | 0.949 | 0.868 | 0.937 | 0.914 |  |  |  |  |  | 0.122 | 0.143 | 0.0823 | 0.0878 | 0.069 | 0.194 | 0.285 | 0.259 | 0.337 | 0.264
IA-LM | 1.47 | 1.13 | 1.2 | 1.03 | 1.07 |  |  |  |  |  |  |  |  |  |  |  |  |  |  | 
NCI-H520 | 0.83 | 0.656 | 0.698 | 0.812 | 0.744 | 0.21 | 0.264 | 0.223 | 0.215 | 0.234 | 0.435 | 0.355 | 0.462 | 0.342 | 0.422 |  |  |  |  | 
NCI-H661 | 1.06 | 0.874 | 0.738 | 0.75 | 0.625 | 0.994 | 0.895 | 0.867 | 0.674 | 0.629 | 0.34 | 0.367 | 0.367 | 0.361 | 0.377 |  |  |  |  | 
NCI-H1299 | 1.14 | 1.06 | 1.15 | 1.12 | 1.17 |  |  |  |  |  |  |  |  |  |  |  |  |  |  | 
NCI-H1563 | 0.891 | 0.967 | 0.933 | 0.836 | 0.87 | 0.489 | 0.558 | 0.552 | 0.501 | 0.515 |  |  |  |  |  |  |  |  |  | 
NCI-H1648 |  |  |  |  |  |  |  |  |  |  | 0.734 | 0.624 | 0.592 | 0.241 | 0.311 | 0.735 | 0.596 | 0.531 | 0.58 | 0.546
NCI-H1650 | 0.871 |  | 0.9 | 0.671 | 0.774 | 0.181 |  | 0.188 | 0.164 | 0.224 | 0.409 |  | 0.408 | 0.313 | 0.343 |  |  |  |  | 
NCI-H1703 | 0.319 |  | 0.347 | 0.361 | 0.329 |  |  |  |  |  |  |  |  |  |  | 0.13 | 0.141 | 0.119 | 0.121 | 0.109
NCI-H1792 |  |  |  |  |  | 0.389 | 0.695 | 0.464 | 0.376 | 0.41 |  |  |  |  |  | 0.615 | 0.534 | 0.703 | 0.643 | 0.466
NCI-H2009 | 1.22 | 1.19 | 1.31 | 1.21 | 1.33 | 1.08 | 1.04 | 1.13 | 1.02 | 1.08 | 0.856 | 0.785 | 0.789 | 0.713 | 0.732 |  |  |  |  | 
NCI-H2023 | 0.811 | 0.892 | 0.42 | 0.333 | 0.562 | 0.85 | 0.711 | 0.756 | 0.594 | 0.71 | 0.422 | 0.377 | 0.366 | 0.169 | 0.248 |  |  |  |  | 
NCI-H2228 | 0.914 | 0.88 | 0.774 | 0.795 | 0.759 | 0.141 | 0.127 | 0.136 | 0.132 | 0.143 | 0.271 | 0.259 | 0.217 | 0.191 | 0.205 |  |  |  |  | 
SK-LU-1 | 0.856 | 0.833 | 0.878 | 0.764 | 0.845 | 0.19 | 0.206 | 0.233 | 0.193 | 0.193 | 0.332 | 0.32 | 0.355 | 0.322 | 0.277 |  |  |  |  | 
SK-MES-1 | 0.905 | 0.552 | 0.596 | 0.372 | 0.448 | 0.476 | 0.399 | 0.481 | 0.277 | 0.49 | 0.928 | 0.897 | 0.723 | 0.613 | 0.532 |  |  |  |  | 
SW 1573 | 0.999 | 0.924 | 0.898 | 0.861 | 0.877 | 0.141 | 0.262 | 0.247 | 0.214 | 0.214 | 0.16 | 0.175 | 0.202 | 0.158 | 0.171 |  |  |  |  | 
UMC-11 | 0.992 | 1.03 | 1.08 | 1.02 | 0.996 | 1.03 | 1.08 | 1.06 | 1.01 | 0.944 | 0.206 | 0.199 | 0.198 | 0.207 | 0.187 |  |  |  |  | 
